Results: patent US20160144021A1, “Vaccine Composition And Method Of Use” (MEDIMMUNE, LLC, priority 2013, published 2016)

What was measured:
RSV sF protein = assay: IFNγ ELISPOT of splenocytes, naive Sprague Dawley rats; type: in vivo; conditions: Day 46, 4 days post RSV challenge
Procedure: Systemic cellular immune responses to vaccination were evaluated in all available animals at Day 46, 4 days post RSV challenge. For each of the groups, individual splenocyte samples were prepared. T-cell readouts were assessed by ELISPOT counts of IFNγ-secreting cells following a 36-48 hour restimulation with RSV sF. Significance was calculated using GraphPad Prism 1-way ANOVA with either Tukey or Bonferroni post test with a significance cutoff of p<0.05.

[1] = system: IFNγ, IL-5, IL-13, eotaxin, RANTES; assay: Lung cytokines 4 days post challenge, highly seropositive BALB/c mice
Procedure: (§1) One hundred three female BALB/c mice (Charles River), ages 6-8 weeks old, were divided into 13 groups. Group 1 had 7 mice and groups 2 through 13 had 8 mice. Following anaesthetization groups 1 through 12 were dosed with 1×10^6 plaque forming units (PFU) in 100 μL of live RSV via an intranasal (IN) route on Day 0 and Day 35. Group 13 was not exposed to RSV. On Day 56, groups 1 through 11 were immunized with placebo (PBS) or vaccine article via an intramuscular (IM) route following anesthesia with isoflurane. The vaccine articles were formulated in a total of 100 μL with 50 μL given in each hind limb. Group 12 was anesthetized with isoflurane and immunized with 1×10^6 PFU in 100 μL of live RSV via an IN route. […] Sera were obtained from retro orbital blood collection at study days 0, 28, 56 70 and 84, separated from whole blood and stored at −20° C. until evaluated. Spleens from 4 animals in each group were harvested for T cell assays on Day 67, 11 days post immunization, or at day 88, 4 days post challenge. Lung cytokines quantified at 4 days after challenge in individual lung homogenates by luminex assay (Milipore).
Mouse cytokine/chemokine multiplex kits designed to include IFNgamma, IL-5, IL-13, IL-17 and eotaxin (Millipore, Billerica, Mass.) were used to evaluate lung homogenates. Lung homogenates were clarified by centrifugation prior to use. Assays were performed following manufacturer's instructions and plates were analyzed on a Luminex reader (Bio-Rad, Hercules, Calif.).

[2] = system: RSV-F derived MHC II (I-Ed)-binding peptides; assay: F-specific CD4 T-cell cytokine profiling of restimulated splenocytes, naive BALB/c mice; type: in vivo; conditions: splenocytes 4 days post challenge, 72 h restimulation
[3] = system: RSV F peptide pool of overlapping 15-mers; assay: F-specific IFNγ ELISPOT of PBMC, cynomolgus monkeys; type: in vivo
Procedure: To determine whether immunization with sF formulated with GLA-SE enhanced an F-specific T cell response, F-specific IFNγ T cell responses were measured by ELISPOT following restimulation with a peptide pool of overlapping 15-mers derived from the RSV F protein sequence. […] While the number of T cells in the sF+GLA-SE group decreased over time, one animal still met the definition of a positive responder out to day 169. At Day 169, 5 months post vaccination, a booster vaccination was given. […] In comparison, 0 of 4 monkeys in the sF alone group responded with an increase in IFNγ secreting F-specific T cells (mean 5 SFC/million).

RSV sF [4] = assay: Serum anti-F IgG and isotype ELISA, naive Sprague Dawley rats; type: in vivo; conditions: Day 42
Procedure: In a subsequent study, the immunogenicity and protection following a prime-boost regimen of RSV-SF was evaluated. 40 naive female Sprague Dawley rats were divided into designated vaccine cohorts of 5-6 animals per cohort. Briefly, test groups were given RSV sF (10 μg or 100 μg per animal) without adjuvant or RSV sF (10 μg or 100 μg per animal) with GLA-SE (2.5 μg in 2% SE). Negative control groups were dosed with placebo (PBS buffer) or adjuvant GLA-SE (2.5 μg/2%) without RSV sF. […] Groups 1-6 were inoculated IM with 500 μL of designated vaccine article on Day 0 and Day 22, while Group 7 was inoculated IN with 200 μL of RSV A2 virus on day 0 only. […] Rats were euthanized at 4 days post challenge on Day 46, the day of peak viral replication determined from Study 1. Lungs (excluding 1 lobe which was formalin-fixed) and noses were homogenized and quantified for viral titers.
Serological responses to vaccination were evaluated at 6 hours post immunization, D22, and D42 for all animals and at Day 14 for a subset of 3 animals per group. […] Serum obtained 6 hours post-immunization was evaluated for cytokine titers by multiplexed ELISA. Serum from Days 14, 22, and 42 were measured for total anti-F IgG ELISA endpoint dilution titers. Day 42 serum was evaluated for the specific contribution of IgG1, IgG2a, and IgG2b anti-F responses by ELISA endpoint dilution titers. […]

[5] = system: RSV-F MHC I and MHC II restricted peptides; assay: IFNγ ELISPOT of splenocytes, naive BALB/c mice; type: in vivo; conditions: Day 32, 4 days post challenge, MHC I F peptide
RSV A2 [6] = assay: RSV microneutralization of sera, highly (2x) RSV seropositive BALB/c mice; type: in vivo; conditions: very small amounts of antigen
Procedure: as §1

RSV sF [7] = assay: Serum RSV F-specific IgG, IgG1, IgG2a ELISA, highly seropositive BALB/c mice; type: in vivo; conditions: day 84
Procedure: as §1

RSV A2 [8] = assay: RSV A2-GFP microneutralization of sera, 1x RSV seropositive BALB/c mice; type: in vivo
Procedure: Naïve female BALB/c mice were divided into designated vaccine cohorts of 8-9 mice each and dosed at Day 0. […] Successful seroconversion was confirmed by F-specific ELISA endpoint titers on Day 0. Groups of 9 mice were inoculated intramuscularly (IM) with the vaccine formulations at Day 0. 3 mice per group were evaluated for cellular immune responses at 10 days post […], while the remaining 5-6 animals per group were followed for serum antibody responses through Day 73.
Serology readouts were made at Days 0, 14, 28, 42, 56, and 73 for each group. Animals were lightly anesthetized with isoflurane and bled intraorbitally. Serum was separated and stored at −20° C. and thawed for testing. Total anti-F IgG were measured at each timepoint, with anti-F IgG1 and anti-F IgG2a ELISA endpoint dilution titers measured at Day 0 and Day 42. RSV neutralization titer was determined by a RSV A2-GFP microneutralization assay. The polyclonal nature of the anti-F IgG response was evaluated on Day 42 by competition ELISA with site-specific monoclonal antibodies to RSV-F. Anti-F IgA endpoint dilution titers were measured at Day 14 for each group.

RSV A2 [9] = assay: Lung viral titers by plaque assay after RSV challenge, naive BALB/c mice; type: in vivo

RSV sF: RSV soluble F protein, amino acids 1-524 of the RSV A2 F sequence lacking the transmembrane domain, given without adjuvant
F-specific IFNγ ELISPOT responses (RSV sF protein; 10 μg RSV sF): 64.00 SFU/million cells | F-specific IFNγ ELISPOT responses (RSV sF protein; 100 μg RSV sF): 87.78 SFU/million cells | lung RANTES following RSVA2 exposure ([1]; 4 days post challenge): increased with increasing amounts of RSV sF | lung eotaxin and IL-13 upon RSV challenge ([1]; 4 days post challenge): did not induce eotaxin or IL-13 levels higher than any of the other groups | lung IL-5 in response to RSV challenge ([1]; day 88, 4 days post challenge): did not set up mice to induce IL-5 | F-specific CD4 T-cell cytokine production profile [2]: Th2-type response characterized by IL-5 and IL-13 cytokines | mean F-specific IFNγ ELISPOT response ([3]; Day 42): 8 SFC/million PBMC | animals with positive F-specific IFNγ ELISPOT response ([3]; Day 42, ≥50 SFC/million increase and 4-fold rise from day −7): 0 of the 4 | animals with positive F-specific IFNγ ELISPOT response ([3]; Day 183): 0 of 4 | mean F-specific IFNγ ELISPOT response ([3]; Day 183): 5 SFC/million | F-specific isotype balance (RSV sF [4]): higher IgG1 titers than IgG2b titers | F-specific CD8 IFNγ ELISPOT [5]: ~30 spot forming units (SFU)/million cells | neutralization level lower than that of the highest adjuvanted RSV sF dose of 50 μg (RSV A2 [6]): approximately 6 fold | Th bias from RSV sF-specific IgG1 and IgG2a serum titers (RSV sF [7]): maintained the Th1 bias | mean RSV neutralizing titers (RSV A2 [8]; Day 14, dose 0.4 μg RSV sF assumed from order): 8.32 log2 | mean RSV neutralizing titers (RSV A2 [8]; Day 14, dose 10 μg RSV sF assumed from order): 8.66 log2 | mean RSV neutralizing titers (RSV A2 [8]; Day 14, second value, dose 2 μg RSV sF assumed from order): 7.82 log2 | animals having detectable lung viral titers (RSV A2 [9]; 4 days post challenge): 4/7 | lung protection (full = 100-fold reduction vs PBS) (RSV A2 [9]; 4 days post challenge): partial lung protection | detectable lung viral titers (individual animals) (RSV A2 [9]; naive BALB/c, IM days 0 and 14, 0.3 μg RSV sF, challenge day 28, 4 days post challenge): 2.3-3.0 log10 pfu/gram
